Common to all, as to format: cell-based
The nature of assay [1]: MTT assay, proliferation inhibition. Particulars: Homo sapiens, LN-18 gastric cancer, read-out: Proliferation inhibition rate. The source says: (§1) 1. Cytotoxicity Assay Using Human Tumor Cell Lines
(§2) Paclitaxel was used as the positive drug.
(In general: Tetrazolium dyes change colour on reduction, which living cells bring about.)

Assay [2] deals with NCI-H460 non-small cell lung cancer. The experiment in a line: MTT assay, proliferation inhibition. The note with it: Homo sapiens, read-out: Proliferation inhibition rate.
Text: as §1, §2

The test system of a further assay is HL60 leukemia. The experiment in a line: MTT assay, proliferation inhibition. The note with it: Homo sapiens, HL-60, read-out: Proliferation inhibition rate.
Text: as §1, §2

A further assay relates to MDA-MB-436 breast cancer. The experiment in a line: MTT assay, proliferation inhibition. The note with it: Homo sapiens, read-out: Proliferation inhibition rate.
Text: as §1, §2

A further assay has as its system MCF-7 breast cancer. The experiment in a line: MTT assay, proliferation inhibition. Particulars: Homo sapiens, MCF7, read-out: Proliferation inhibition rate.
Text: as §1, §2

With `CO[C@H]1C(=O)[C@]2(C)[C@@H](OC(=O)N(C)C)C[C@H]3OC[C@@]3(OC(C)=O)[C@H]2[C@H](OC(=O)c2ccccc2)[C@]2(O)C[C@H](OC(=O)[C@H](O)[C@@H](NC(=O)OC(C)(C)C)c3ccccc3)C(C)=C1C2(C)C` [PCMI-31], the inhibition at 1 µM in assay [1] worked out at 95.6%; in assay [2] it was 87.7%; in the assay on HL60 leukemia it was 97.8%; in the assay on MDA-MB-436 breast cancer, 86.3%; with MCF-7 breast cancer, 90.8%.

The values above are taken from patent US10253007B2, “Taxanes compounds, preparation method therefor, and uses thereof” (Jiangsu Tasly Diyi Pharmaceutical Co., Ltd., priority 2013, dated 2019).
